Data as given in EP0288055B1, “Use of ODC inhibitors, dacarbazine, and interferon, in the treatment of malignant melanoma” (MERRELL DOW PHARMACEUTICALS INC., priority 1987, dated 1988).

System: B16 melanoma
Test: Effect on the growth of B16 melanoma in mice (tumor weight at sacrifice)
Assay type: in vivo
Details: for Tumor Weight (g) (Mean ± S.E.): B16 melanoma cells (1 x 10^5 cells/animal) S.C., tumors weighed on day 18, DFMO 2% in drinking water day 1-18, DTIC 6.25 mg/Kg i.p. once daily day 1-15, IFN 1000 units/animal S.C. alternate days day 2-18; for % Inhibition: inhibition of tumor weight vs control on day 18, same dosing as for tumor weight
From the text: EFFECT OF A COMBINATION OF α-DIFLUOROMETHYLORNITHINE (DFMO), DACARBAZINE (DTIC) AND α-INTERFERON (IFN) ON THE GROWTH OF B16 MELANOMA IN MICE

Structure (SMILES): NCCC[C@](N)(C(=O)O)C(F)F [DFMO, α-difluoromethyl ornithine]
- Tumor Weight (g) (Mean ± S.E.): 1.02 ± 0.15 g
- % Inhibition: 86.0%

Structure (SMILES): CN(C)N=Nc1[nH]cnc1C(N)=O [DTIC, 5-(3,3-Dimethyl-1-triazenyl)-1H-imidazole-4-carboxamide]
- Tumor Weight (g) (Mean ± S.E.): 3.2 ± 0.63 g
- % Inhibition: 35.0%
